Assay results as given in patent US11414379B2, “SPAK kinase inhibitors as neuroprotective agents” (United States Government as represented by the Department …, priority 2018, dated 2022).

Columns and labels:
Assay in all cases: Kinase panel (Dundee profiling)
Assay type in all cases: biochemical
Conditions in all cases: read-out: % residual kinase activity
TLK1 = TLK1 (Homo sapiens, UniProt Q9UKI8)
Experimental: (§1) The kinase selectivity of ZT-1a was further assessed using standard radioisotopic enzymatic assays against a panel of 140 recombinant kinases (Dundee profiling, Table 2) (Bain et al. (2007) The Biochemical journal 408, 297-315). ZT-1a at a concentration of 10 μM inhibited only MAPKAP-K2 activity 85±7% compared to DMSO control, representing high kinase selectivity.
(§2) Referring to Table 2, ZT-1a was tested at 10 and 1 μM against a panel of 140 recombinant kinases in an enzymatic activity-based assay performed by the International Centre for Kinase Profiling in the MRC Protein Phosphorylation and Ubiquitylation Unit. Values represent % residual kinase activity (mean+/−SEM, n=3). Kinases labelled with an asterick* are inhibited ≥50% by ZT-1a.

TTBK2 = TTBK2 (Homo sapiens, UniProt Q6IQ55)
Experimental: as §1, §2

CAMKKb = CAMKKb (Homo sapiens, UniProt Q96RR4)
Experimental: as §1, §2

EPH-B4 = EPH-B4 (Homo sapiens, UniProt P54760)
Experimental: as §1, §2

FGF-R1 = FGF-R1 (Homo sapiens, UniProt P11362)
Experimental: as §1, §2

PAK6 = PAK6 (Homo sapiens, UniProt Q9NQU5)
Experimental: as §1, §2

PKBa = PKBa (Homo sapiens, UniProt P31749, S473D)
Experimental: as §1, §2

NUAK1 = NUAK1 (Homo sapiens, UniProt O60285)
Experimental: as §1, §2

ERK2 = ERK2 (Homo sapiens, UniProt P28482)
Experimental: as §1, §2

Aurora B = Aurora B (Homo sapiens, UniProt Q96GD4)
Experimental: as §1, §2

MAPKAP-K3 = MAPKAP-K3 (Homo sapiens, UniProt Q16644)
Experimental: as §1, §2

EPH-B2 = EPH-B2 (Homo sapiens, UniProt P29323)
Experimental: as §1, §2

PKCγ = PKCγ (Homo sapiens, UniProt P05129)
Experimental: as §1, §2

ABL = ABL (Homo sapiens, UniProt P00519)
Experimental: as §1, §2

TBK1 = TBK1 (Homo sapiens, UniProt Q9UHD2)
Experimental: as §1, §2

p38d MAPK = p38d MAPK (Homo sapiens, UniProt O15264)
Experimental: as §1, §2

ROCK2 = ROCK2 (Rattus norvegicus, UniProt Q62868)
Experimental: as §1, §2

PIM2 = PIM2 (Homo sapiens, UniProt Q9P1W9)
Experimental: as §1, §2

MEKK1 = MEKK1 (Homo sapiens, UniProt Q13233)
Experimental: as §1, §2

PKCz = PKCz (Homo sapiens, UniProt Q05513)
Experimental: as §1, §2

YES1 = YES1 (Homo sapiens, UniProt P07947)
Experimental: as §1, §2

SYK = SYK (Homo sapiens, UniProt P43405)
Experimental: as §1, §2

CDK2-Cyclin A = CDK2-Cyclin A (Homo sapiens, UniProt P24941)
Experimental: as §1, §2

PKCa = PKCa (Homo sapiens, UniProt P17252)
Experimental: as §1, §2

MNK2 = MNK2 (Homo sapiens, UniProt Q9HBH9)
Experimental: as §1, §2

GSK3b = GSK3b (Homo sapiens, UniProt P49841)
Experimental: as §1, §2

ERK8 = ERK8 (Homo sapiens, UniProt Q8TD08)
Experimental: as §1, §2

PAK5 = PAK5 (Homo sapiens, UniProt Q9P286)
Experimental: as §1, §2

PDK1 = PDK1 (Homo sapiens, UniProt O15530)
Experimental: as §1, §2

PKBb = PKBb (Homo sapiens, UniProt P31751)
Experimental: as §1, §2

CSK = CSK (Homo sapiens, UniProt P41240)
Experimental: as §1, §2

TTBK1 = TTBK1 (Homo sapiens, UniProt Q5TCY1)
Experimental: as §1, §2

Sequence of PKBa (P31749 118-480 S473D limits assumed): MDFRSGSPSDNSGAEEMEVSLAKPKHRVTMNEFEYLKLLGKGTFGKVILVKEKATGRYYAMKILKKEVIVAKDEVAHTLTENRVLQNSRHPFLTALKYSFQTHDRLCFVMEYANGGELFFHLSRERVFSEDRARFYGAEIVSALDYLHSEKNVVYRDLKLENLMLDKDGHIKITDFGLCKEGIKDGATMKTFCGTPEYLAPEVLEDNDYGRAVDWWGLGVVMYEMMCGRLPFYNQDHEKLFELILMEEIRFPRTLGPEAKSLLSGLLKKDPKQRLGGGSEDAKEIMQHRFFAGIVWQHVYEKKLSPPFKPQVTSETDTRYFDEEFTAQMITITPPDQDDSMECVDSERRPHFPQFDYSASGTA
Sequence of PAK5 (Q9P286 whole entry): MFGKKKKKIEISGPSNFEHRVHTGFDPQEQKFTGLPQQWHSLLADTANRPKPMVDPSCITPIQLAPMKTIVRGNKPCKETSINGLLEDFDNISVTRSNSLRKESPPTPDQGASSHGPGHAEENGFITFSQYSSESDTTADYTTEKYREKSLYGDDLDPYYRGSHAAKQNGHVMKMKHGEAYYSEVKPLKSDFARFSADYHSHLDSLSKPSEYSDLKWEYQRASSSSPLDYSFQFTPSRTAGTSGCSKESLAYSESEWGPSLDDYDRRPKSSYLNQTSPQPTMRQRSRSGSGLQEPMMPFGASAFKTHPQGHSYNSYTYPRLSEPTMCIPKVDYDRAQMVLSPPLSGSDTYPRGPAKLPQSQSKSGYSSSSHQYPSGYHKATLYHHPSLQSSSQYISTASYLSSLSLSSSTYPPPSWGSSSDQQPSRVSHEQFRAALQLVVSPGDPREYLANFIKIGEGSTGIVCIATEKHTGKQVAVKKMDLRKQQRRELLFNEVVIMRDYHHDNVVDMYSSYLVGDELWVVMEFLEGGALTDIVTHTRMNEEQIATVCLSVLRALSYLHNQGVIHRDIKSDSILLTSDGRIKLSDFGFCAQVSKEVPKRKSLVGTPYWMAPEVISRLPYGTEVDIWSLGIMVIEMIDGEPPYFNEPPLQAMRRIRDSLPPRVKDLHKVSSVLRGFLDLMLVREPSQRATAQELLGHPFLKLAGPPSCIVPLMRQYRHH
Sequence of TLK1 (Q9UKI8 whole entry, species assumed): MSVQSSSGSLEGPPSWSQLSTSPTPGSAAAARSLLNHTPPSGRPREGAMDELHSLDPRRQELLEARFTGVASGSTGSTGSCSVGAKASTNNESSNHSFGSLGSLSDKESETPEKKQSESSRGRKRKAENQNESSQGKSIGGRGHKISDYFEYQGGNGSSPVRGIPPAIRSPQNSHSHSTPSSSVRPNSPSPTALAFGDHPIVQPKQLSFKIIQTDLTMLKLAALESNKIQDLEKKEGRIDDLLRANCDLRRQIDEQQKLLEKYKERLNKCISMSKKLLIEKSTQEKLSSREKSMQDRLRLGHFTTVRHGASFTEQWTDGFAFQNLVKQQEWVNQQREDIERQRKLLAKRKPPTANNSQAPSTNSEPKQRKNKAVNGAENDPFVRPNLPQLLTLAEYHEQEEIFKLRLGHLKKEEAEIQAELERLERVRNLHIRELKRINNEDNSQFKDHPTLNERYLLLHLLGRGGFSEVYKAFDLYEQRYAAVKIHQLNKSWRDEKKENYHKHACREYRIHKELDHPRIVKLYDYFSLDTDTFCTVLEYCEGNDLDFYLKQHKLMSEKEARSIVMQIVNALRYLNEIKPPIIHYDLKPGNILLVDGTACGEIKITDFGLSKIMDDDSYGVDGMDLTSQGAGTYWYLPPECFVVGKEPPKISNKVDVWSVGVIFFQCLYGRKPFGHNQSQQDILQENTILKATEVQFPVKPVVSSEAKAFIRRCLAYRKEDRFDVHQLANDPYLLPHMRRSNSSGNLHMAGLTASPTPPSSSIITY
Sequence of YES1 (P07947 whole entry, species assumed): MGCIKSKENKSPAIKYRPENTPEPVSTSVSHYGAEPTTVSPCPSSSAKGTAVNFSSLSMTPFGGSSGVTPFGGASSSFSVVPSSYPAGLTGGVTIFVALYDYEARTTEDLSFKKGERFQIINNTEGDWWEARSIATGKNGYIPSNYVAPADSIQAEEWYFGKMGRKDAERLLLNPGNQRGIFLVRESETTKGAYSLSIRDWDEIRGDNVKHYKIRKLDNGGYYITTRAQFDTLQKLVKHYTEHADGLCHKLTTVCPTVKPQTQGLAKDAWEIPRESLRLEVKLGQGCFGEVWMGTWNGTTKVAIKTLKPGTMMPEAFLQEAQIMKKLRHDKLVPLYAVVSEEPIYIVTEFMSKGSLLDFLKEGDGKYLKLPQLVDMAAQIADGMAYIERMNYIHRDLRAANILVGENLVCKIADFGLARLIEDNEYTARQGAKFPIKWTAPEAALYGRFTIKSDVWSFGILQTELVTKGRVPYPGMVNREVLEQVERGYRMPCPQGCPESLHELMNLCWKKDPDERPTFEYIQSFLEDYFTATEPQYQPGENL
Sequence of MAPKAP-K3 (Q16644 whole entry, species assumed): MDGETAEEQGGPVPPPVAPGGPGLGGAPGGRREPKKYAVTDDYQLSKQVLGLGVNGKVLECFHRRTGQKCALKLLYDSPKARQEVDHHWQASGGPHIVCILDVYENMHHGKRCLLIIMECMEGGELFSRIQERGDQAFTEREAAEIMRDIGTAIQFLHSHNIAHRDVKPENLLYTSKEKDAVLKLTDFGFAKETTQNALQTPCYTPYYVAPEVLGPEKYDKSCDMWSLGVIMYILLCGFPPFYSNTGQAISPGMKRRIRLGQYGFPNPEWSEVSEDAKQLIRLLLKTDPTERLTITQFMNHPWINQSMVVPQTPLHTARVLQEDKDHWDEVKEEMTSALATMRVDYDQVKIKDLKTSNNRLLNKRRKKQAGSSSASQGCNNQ
Sequence of PKBb (P31751 whole entry): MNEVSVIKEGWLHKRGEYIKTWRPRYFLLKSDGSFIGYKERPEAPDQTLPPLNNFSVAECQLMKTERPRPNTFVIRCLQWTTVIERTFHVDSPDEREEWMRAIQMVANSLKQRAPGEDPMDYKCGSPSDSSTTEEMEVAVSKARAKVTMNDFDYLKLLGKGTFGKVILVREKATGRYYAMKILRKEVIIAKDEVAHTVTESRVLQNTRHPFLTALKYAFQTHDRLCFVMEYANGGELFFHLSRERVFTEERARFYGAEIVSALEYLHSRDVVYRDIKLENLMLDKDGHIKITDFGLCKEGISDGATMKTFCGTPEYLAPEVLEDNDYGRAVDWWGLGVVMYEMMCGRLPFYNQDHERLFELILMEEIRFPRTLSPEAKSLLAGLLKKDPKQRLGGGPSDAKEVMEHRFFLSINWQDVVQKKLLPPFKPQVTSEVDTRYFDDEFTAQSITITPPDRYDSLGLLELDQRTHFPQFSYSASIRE
Sequence of PAK6 (Q9NQU5 whole entry, species assumed): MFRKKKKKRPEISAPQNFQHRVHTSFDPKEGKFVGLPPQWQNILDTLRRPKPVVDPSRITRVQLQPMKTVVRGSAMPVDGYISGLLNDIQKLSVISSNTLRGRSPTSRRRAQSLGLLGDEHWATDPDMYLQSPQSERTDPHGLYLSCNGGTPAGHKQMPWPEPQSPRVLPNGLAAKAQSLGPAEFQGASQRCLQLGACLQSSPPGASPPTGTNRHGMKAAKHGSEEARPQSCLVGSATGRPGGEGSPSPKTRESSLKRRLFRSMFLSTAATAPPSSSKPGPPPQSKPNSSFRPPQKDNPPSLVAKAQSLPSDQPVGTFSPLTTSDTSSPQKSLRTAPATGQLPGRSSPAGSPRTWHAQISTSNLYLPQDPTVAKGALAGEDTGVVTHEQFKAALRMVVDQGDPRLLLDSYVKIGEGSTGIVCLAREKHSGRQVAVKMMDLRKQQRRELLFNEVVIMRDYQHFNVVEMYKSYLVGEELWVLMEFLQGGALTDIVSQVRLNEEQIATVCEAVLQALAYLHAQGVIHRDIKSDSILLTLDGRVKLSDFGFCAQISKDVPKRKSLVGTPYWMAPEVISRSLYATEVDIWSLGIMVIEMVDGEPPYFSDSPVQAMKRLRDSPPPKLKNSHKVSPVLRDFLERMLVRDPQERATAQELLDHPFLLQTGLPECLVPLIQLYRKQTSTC
Sequence of PIM2 (Q9P1W9 whole entry, species assumed): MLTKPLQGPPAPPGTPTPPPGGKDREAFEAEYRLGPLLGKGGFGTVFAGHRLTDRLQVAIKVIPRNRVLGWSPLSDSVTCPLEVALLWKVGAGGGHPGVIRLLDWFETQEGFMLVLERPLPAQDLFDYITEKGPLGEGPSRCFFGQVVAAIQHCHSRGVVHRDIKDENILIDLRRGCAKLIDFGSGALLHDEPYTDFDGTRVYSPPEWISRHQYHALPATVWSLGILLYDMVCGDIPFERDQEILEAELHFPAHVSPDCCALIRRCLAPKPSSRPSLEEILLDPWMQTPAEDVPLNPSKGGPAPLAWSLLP
Sequence of ERK2 (P28482 whole entry, species assumed): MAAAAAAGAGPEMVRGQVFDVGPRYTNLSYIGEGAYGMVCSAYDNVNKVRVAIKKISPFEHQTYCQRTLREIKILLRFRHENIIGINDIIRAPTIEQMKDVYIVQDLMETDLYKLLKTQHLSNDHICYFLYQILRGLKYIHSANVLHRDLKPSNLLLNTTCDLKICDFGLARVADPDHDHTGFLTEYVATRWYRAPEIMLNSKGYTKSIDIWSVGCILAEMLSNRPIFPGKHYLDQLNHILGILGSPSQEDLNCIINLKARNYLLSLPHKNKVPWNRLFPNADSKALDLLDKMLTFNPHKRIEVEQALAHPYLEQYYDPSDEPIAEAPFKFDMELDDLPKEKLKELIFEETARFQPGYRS
Sequence of Aurora B (Q96GD4 whole entry): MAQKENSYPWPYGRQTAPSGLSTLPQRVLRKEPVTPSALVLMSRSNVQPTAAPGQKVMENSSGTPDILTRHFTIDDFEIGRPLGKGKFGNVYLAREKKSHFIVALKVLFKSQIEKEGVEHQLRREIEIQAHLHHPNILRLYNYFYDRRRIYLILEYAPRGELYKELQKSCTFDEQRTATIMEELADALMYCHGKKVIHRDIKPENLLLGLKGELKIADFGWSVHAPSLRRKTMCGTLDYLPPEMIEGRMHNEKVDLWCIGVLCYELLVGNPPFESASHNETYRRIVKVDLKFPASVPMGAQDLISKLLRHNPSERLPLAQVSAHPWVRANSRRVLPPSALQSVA

Question: How did the remaining activity at 1 µM (TLK1; 1 μM) turn out when `Cc1cc(C(C#N)c2ccc(Cl)cc2)c(Cl)cc1NC(=O)c1cc(Cl)ccc1O` (stereo not shown) [ZT-1a, 5-chloro-N-(5-chloro-4-((4-chlorophenyl)(cyano)methyl)-2-methylphenyl)-2-hydroxy-benzamide] was run?
Answer: 130 ± 13%

Question: And the remaining activity at 10 µM (TLK1; 10 μM)?
Answer: 124 ± 4%

Question: What about the remaining activity at 1 µM (TTBK2; 1 μM) of the same molecule?
Answer: 101 ± 32%

Question: What about the remaining activity at 10 µM (TTBK2; 10 μM) of the same molecule?
Answer: 98 ± 34%

Question: And the remaining activity at 1 µM (CAMKKb; 1 μM)?
Answer: 115 ± 10%

Question: And the remaining activity at 10 µM (CAMKKb; 10 μM)?
Answer: 102 ± 9%

Question: What about the remaining activity at 1 µM (EPH-B4; 1 μM) of the same molecule?
Answer: 100 ± 8%

Question: What about the remaining activity at 10 µM (EPH-B4; 10 μM) of the same molecule?
Answer: 151 ± 33%

Question: What about the remaining activity at 1 µM (FGF-R1; 1 μM) of the same molecule?
Answer: 93 ± 6%

Question: And the remaining activity at 10 µM (FGF-R1; 10 μM)?
Answer: 101 ± 15%

Question: And the remaining activity at 1 µM (PAK6; 1 μM)?
Answer: 69 ± 2%

Question: What about the remaining activity at 10 µM (PAK6; 10 μM) of the same molecule?
Answer: 75 ± 4%

Question: And the remaining activity at 1 µM (PKBa; 1 μM)?
Answer: 104 ± 1%

Question: What about the remaining activity at 10 µM (PKBa; 10 μM) of the same molecule?
Answer: 91 ± 4%

Question: And the remaining activity at 1 µM (NUAK1; 1 μM)?
Answer: 52 ± 7%

Question: And the remaining activity at 10 µM (NUAK1; 10 μM)?
Answer: 61 ± 16%

Question: What about the remaining activity at 1 µM (ERK2; 1 μM) of the same molecule?
Answer: 111 ± 25%

Question: And the remaining activity at 10 µM (ERK2; 10 μM)?
Answer: 75 ± 3%

Question: And the remaining activity at 1 µM (Aurora B; 1 μM)?
Answer: 119 ± 6%

Question: And the remaining activity at 10 µM (Aurora B; 10 μM)?
Answer: 92 ± 15%

Question: What about the remaining activity at 1 µM (MAPKAP-K3; 1 μM) of the same molecule?
Answer: 96 ± 26%

Question: And the remaining activity at 10 µM (MAPKAP-K3; 10 μM)?
Answer: 72 ± 8%

Question: What about the remaining activity at 1 µM (EPH-B2; 1 μM) of the same molecule?
Answer: 77 ± 2%

Question: And the remaining activity at 10 µM (EPH-B2; 10 μM)?
Answer: 81 ± 8%

Question: What about the remaining activity at 1 µM (PKCγ; 1 μM) of the same molecule?
Answer: 133 ± 11%

Question: What about the remaining activity at 10 µM (PKCγ; 10 μM) of the same molecule?
Answer: 120 ± 8%

Question: What about the remaining activity at 1 µM (ABL; 1 μM) of the same molecule?
Answer: 85 ± 4%

Question: And the remaining activity at 10 µM (ABL; 10 μM)?
Answer: 68 ± 16%

Question: And the remaining activity at 1 µM (TBK1; 1 μM)?
Answer: 119 ± 10%

Question: What about the remaining activity at 10 µM (TBK1; 10 μM) of the same molecule?
Answer: 94 ± 3%

Question: What about the remaining activity at 1 µM (p38d MAPK; 1 μM) of the same molecule?
Answer: 95 ± 1%

Question: And the remaining activity at 10 µM (p38d MAPK; 10 μM)?
Answer: 112 ± 2%

Question: What about the remaining activity at 1 µM (ROCK2; 1 μM) of the same molecule?
Answer: 109 ± 6%

Question: What about the remaining activity at 10 µM (ROCK2; 10 μM) of the same molecule?
Answer: 101 ± 10%

Question: And the remaining activity at 1 µM (PIM2; 1 μM)?
Answer: 93 ± 5%

Question: What about the remaining activity at 10 µM (PIM2; 10 μM) of the same molecule?
Answer: 93 ± 3%

Question: And the remaining activity at 1 µM (MEKK1; 1 μM)?
Answer: 109 ± 1%

Question: And the remaining activity at 10 µM (MEKK1; 10 μM)?
Answer: 93 ± 16%

Question: And the remaining activity at 1 µM (PKCz; 1 μM)?
Answer: 80 ± 11%

Question: And the remaining activity at 10 µM (PKCz; 10 μM)?
Answer: 122 ± 28%

Question: What about the remaining activity at 1 µM (YES1; 1 μM) of the same molecule?
Answer: 109 ± 3%

Question: What about the remaining activity at 10 µM (YES1; 10 μM) of the same molecule?
Answer: 98 ± 7%

Question: What about the remaining activity at 1 µM (SYK; 1 μM) of the same molecule?
Answer: 93 ± 12%

Question: What about the remaining activity at 10 µM (SYK; 10 μM) of the same molecule?
Answer: 93 ± 1%

Question: What about the remaining activity at 1 µM (CDK2-Cyclin A; 1 μM) of the same molecule?
Answer: 128 ± 12%

Question: What about the remaining activity at 10 µM (CDK2-Cyclin A; 10 μM) of the same molecule?
Answer: 125 ± 6%

Question: And the remaining activity at 1 µM (PKCa; 1 μM)?
Answer: 97 ± 4%

Question: What about the remaining activity at 10 µM (PKCa; 10 μM) of the same molecule?
Answer: 83 ± 2%

Question: What about the remaining activity at 1 µM (MNK2; 1 μM) of the same molecule?
Answer: 100 ± 7%

Question: And the remaining activity at 10 µM (MNK2; 10 μM)?
Answer: 105 ± 3%

Question: And the remaining activity at 1 µM (GSK3b; 1 μM)?
Answer: 39 ± 4%

Question: And the remaining activity at 10 µM (GSK3b; 10 μM)?
Answer: 38 ± 12%

Question: And the remaining activity at 1 µM (ERK8; 1 μM)?
Answer: 104 ± 11%

Question: What about the remaining activity at 10 µM (ERK8; 10 μM) of the same molecule?
Answer: 63 ± 3%

Question: What about the remaining activity at 1 µM (PAK5; 1 μM) of the same molecule?
Answer: 93 ± 26%

Question: And the remaining activity at 10 µM (PAK5; 10 μM)?
Answer: 93 ± 4%

Question: And the remaining activity at 1 µM (PDK1; 1 μM)?
Answer: 92 ± 6%

Question: What about the remaining activity at 10 µM (PDK1; 10 μM) of the same molecule?
Answer: 69 ± 17%

Question: What about the remaining activity at 1 µM (PKBb; 1 μM) of the same molecule?
Answer: 76 ± 14%

Question: What about the remaining activity at 10 µM (PKBb; 10 μM) of the same molecule?
Answer: 51 ± 13%

Question: And the remaining activity at 1 µM (CSK; 1 μM)?
Answer: 96 ± 8%

Question: What about the remaining activity at 10 µM (CSK; 10 μM) of the same molecule?
Answer: 106 ± 29%

Question: And the remaining activity at 1 µM (TTBK1; 1 μM)?
Answer: 119 ± 5%

Question: And the remaining activity at 10 µM (TTBK1; 10 μM)?
Answer: 102 ± 2%
